Measured values reported in publication PMC11864979, “First-in-class ultralong-target-residence-time p38α inhibitors as a mitosis-targeted therapy for colorectal cancer” (Nature Cancer, 2025).
Where “and” joins values, the source holds several entries; their conditions need not be identical. Equal values may be shown once.

Tests used:
LS 174T = assay: cell viability in human CRC cell line LS 174T; assay type: cell-based
Description: The cells were cultured at 37 °C and 7% CO2 with RPMI (KAP^2D cells) or DMEM (other cell lines), supplemented with 10% FBS and penicillin–streptomycin. […] No commonly misidentified cell lines were used. Mycoplasma contamination was excluded by a PCR-based analysis.

KAP^2D cells = assay: EdU incorporation in KAP^2D cells; assay type: cell-based, mouse; conditions: replicates, experiment and repetition
Description: Immunofluorescence staining on cells and organoids was performed on glass coverslips or tissue culture chambers (Sarstedt). Organoids were plated in medium containing 10% Matrigel or Cultrex BME. The cultures were fixed with 4% paraformaldehyde and stained with specific antibodies and DAPI (Vector Labs). All used antibodies and dilutions are listed in the Nature Portfolio Reporting Summary. For analyzing DNA synthesis, the Molecular Probes Click-iT EdU Alexa Fluor 555 kit was used 24 h after EdU incorporation with DAPI counterstaining. SA-β-Gal staining of cells was performed in cell culture dishes (cells) or tissue culture chambers (organoids) after fixation with 0.5% glutaraldehyde as described above. Human cultures were incubated with X-Gal solution at pH 6.0 for ~4 h.

COLO 205 = assay: cell viability in human CRC cell line COLO 205; assay type: cell-based
Description: To generate KAP^2D cells, KAP organoids were isolated from Matrigel, fragmented by mechanical dissociation and plated without any extracellular matrix on common cell culture dishes. Phoenix-Eco packaging cells (CRL-3214), HCT-15 (CCL-225), HCT 116 (CCL-247), COLO 205 (CCL-222), LS 174T (CL-188), RKO (CRL-2577) and HT-29 (HTB-38) were obtained from the American Type Culture Collection. The cells were cultured at 37 °C and 7% CO2 with RPMI (KAP^2D cells) or DMEM (other cell lines), supplemented with 10% FBS and penicillin–streptomycin. KAP^2D cells were authenticated using PCR (Kras locus and Trp53 locus). Phoenix-Eco packaging cells and HCT-15, HCT 116, COLO 205, LS 174T, RKO and HT-29 cells were authenticated by the provider using short tandem repeat profiling. No commonly misidentified cell lines were used. Mycoplasma contamination was excluded by a PCR-based analysis.
(§1) For in vitro treatment studies, organoids were mechanically dissociated and digested using TrypLE supplemented with 100 µg ml^−1 DNaseI and 10.5 µM Y-27632 dihydrochloride (Invitrogen) at 37 °C. A total of 1,000–2,000 single cells were plated per well in white 96-well plates (Greiner) in culture medium containing 10% GFR Matrigel or Cultrex BME. The treatment with doxycycline (5 µg ml^−1), pharmacological inhibitors or corresponding volumes of DMSO was started 24 h after plating. Doxycycline was obtained from Sigma-Aldrich. […] Cell viability was measured by means of CellTiter-Glo 3D or CellTiter-Glo 2.0 reagent (Promega) according to the manufacturers’ instructions and the Infinite M Plex reader (Tecan, i-control version 3.9.1 software). Results were normalized to vehicle (DMSO) or to shNC. For cell-doubling assays, the cell number was quantified at the corresponding time points using Guava EasyCyte flow cytometer (Luminex, CytoSoft v5.2 software).

PDO15 = assay: cell viability in patient-derived CRC organoids PDO15; assay type: cell-based, human
Description: as §1

PDO14 = assay: cell viability in patient-derived CRC organoids PDO14; assay type: cell-based, human
Description: as §1

subcutaneous KAP CRCs = assay: treatment of subcutaneous KAP tumors in wild-type mice; assay type: in vivo, mouse; conditions: for Tumor volume: single tumors, Fig. 5i
Description: Subcutaneous injection, splenic seeding or cecum injection of organoids was performed in 8–10-week-old C57BL/6 N/Crl, Rag2^−/− (B6.Cg-Rag2^tm1.1Cgn/J), or CB17 Scid beige (CB17.Cg-Prkdc^scidLyst^bg-J/Crl) mice, obtained from Charles River. The organoids were dissociated into single cells, washed with PBS and injected in a 1:1 mixture of PBS and Matrigel. For murine organoids, 1 × 10^5 cells were injected into the left and right flanks or the spleen capsule and 2 × 10^6 cells were injected into the cecum wall. For human organoids, 4 × 10^5 cells were injected into the flanks of CB17 Scid beige mice. For splenic seeding and cecum injection, mice were anaesthetized using ketamine (100 mg kg^−1, intraperitoneally) and xylazin (10 mg/kg, intraperitoneally) in NaCl and a small laparotomy below the thorax was performed.
No mice were excluded during treatment studies.

PDO11 = assay: cell viability in patient-derived CRC organoids PDO11; assay type: cell-based, human
Description: as §1

Question: What does the source list for `CNC(=O)c1ccc2c(c1)C(=O)c1ccc(Nc3ccc(F)c(NC(=O)C4CC4)c3)cc1CC2` [Compound 2015]?
Answer: LS 174T Cell viability (%) (LS 174T; 0.0137 µM, 4 d): 96.94% and 94.17% and 83.74% and 81.63% and 85.36%; LS 174T Cell viability (%) (LS 174T; 0.0412 µM, 4 d): 73.38% and 70.71% and 85.74% and 87.33% and 89.84%; LS 174T Cell viability (%) (LS 174T; 0.1235 µM, 4 d): 69.97% and 51.36% and 67.79% and 77.35% and 76.20% and 73.53%; LS 174T Cell viability (%) (LS 174T; 0.3704 µM, 4 d): 24.32% and 25.80% and 26.81% and 26.78% and 26.48%; LS 174T Cell viability (%) (LS 174T; 1.1111 µM, 4 d): 31.73% and 32.17% and 36.58% and 37.87% and 35.55%; LS 174T Cell viability (%) (LS 174T; 3.3333 µM, 4 d): 32.71% and 33.28% and 34.27% and 33.01% and 33.12%; LS 174T Cell viability (%) (LS 174T; 10.0000 µM, 4 d): 28.71% and 24.62% and 25.79% and 25.85%; viability at 0.0137 µM (LS 174T; Homo sapiens, LS174T, 96 h, 0.0137 µM, 4 d, read-out: LS 174T Cell viability (%)): 92.3%; viability at 0.0412 µM (LS 174T; Homo sapiens, LS174T, 96 h, 0.0412 µM, 4 d, read-out: LS 174T Cell viability (%)): 70.7%; viability at 0.3704 µM (LS 174T; Homo sapiens, LS174T, 96 h, 0.3704 µM, 4 d, read-out: LS 174T Cell viability (%)): 25%; viability at 1.1111 µM (LS 174T; Homo sapiens, LS174T, 96 h, 1.1111 µM, 4 d, read-out: LS 174T Cell viability (%)): 31.5%; viability at 3.3333 µM (LS 174T; Homo sapiens, LS174T, 96 h, 3.3333 µM, 4 d, read-out: LS 174T Cell viability (%)): 33.1%; viability at 10 µM (LS 174T; Homo sapiens, LS174T, 96 h, 10.0000 µM, 4 d, read-out: LS 174T Cell viability (%)): 25.1%; IC50 (LS 174T; Homo sapiens, LS174T, 96 h, LS 174T, 4 d of treatment): 132 nM; EdU+ cells (KAP^2D cells; Fig. 4j): 50.19% and 55.77% and 45.40% and 44.63% and 45.42% and 38.28% and 36.62% and 49.78%; EdU+ cells (KAP^2D cells; Fig. 5b): 7.76% and 6.30% and 5.41% and 9.24% and 8.18% and 6.48% and 4.44% and 6.67%; COLO 205 Cell viability (%) (COLO 205; 0.0137 µM, 4 d): 86.20% and 87.62% and 93.54% and 93.70% and 89.28%; COLO 205 Cell viability (%) (COLO 205; 0.0412 µM, 4 d): 89.23% and 86.13% and 86.46% and 84.55% and 84.12%; COLO 205 Cell viability (%) (COLO 205; 0.1235 µM, 4 d): 81.05% and 83.81% and 80.44% and 77.94% and 85.49% and 51.55%; COLO 205 Cell viability (%) (COLO 205; 1.1111 µM, 4 d): 10.16% and 10.58% and 11.54% and 5.54% and 4.72% and 3.60%; COLO 205 Cell viability (%) (COLO 205; 3.3333 µM, 4 d): 11.93% and 11.65% and 12.34% and 6.53% and 6.09% and 5.93%; COLO 205 Cell viability (%) (COLO 205; 10.0000 µM, 4 d): 14.19% and 14.06% and 18.78% and 17.19% and 10.60%; IC50 (COLO 205; Homo sapiens, 96 h, COLO 205, 4 d of treatment): 151 nM; viability at 0.0137 µM (COLO 205; Homo sapiens, COLO 205, 96 h, 0.0137 µM, 4 d): 88.4%; viability at 0.0412 µM (COLO 205; Homo sapiens, COLO 205, 96 h, 0.0412 µM, 4 d): 88.8%; viability at 10 µM (COLO 205; Homo sapiens, COLO 205, 96 h, 10.0000 µM, 4 d, read-out: COLO 205 Cell viability (%)): 13.9%; viability at 0.5 µM (PDO15; Homo sapiens, 96 h, PDO15, 0.5 µM, 4 d, read-out: Cell viability (%)): 77.8%; viability at 1 µM (PDO15; Homo sapiens, 96 h, PDO15, 1 µM, 4 days, read-out: Cell viability (%)): 42.9%; Cell viability (%) (PDO15; PDO15, 0.5 µM, 4 d, 0.5 µM): 81.70% and 63.83%; Cell viability (%) (PDO15; PDO15, 1 µM, 4 days, 1 µM): 57.05% and 51.26%; viability at 1 µM (PDO14; Homo sapiens, 96 h, PDO14, 1 µM, 4 days, read-out: Cell viability (%)): 38%; Cell viability (%) (PDO14; PDO14, 0.5 µM, 4 d, 0.5 µM): 66.36% and 80.25% and 88.11%; Cell viability (%) (PDO14; PDO14, 1 µM, 4 days, 1 µM): 35.04% and 42.53%; subcutaneous KAP tumor development (in words) (subcutaneous KAP CRCs; 20 mg kg^−1 daily, oral gavage): pronounced remission of CRC; Tumor volume (subcutaneous KAP CRCs; 2 d of treatment): 87.5 mm³ and 75.0 mm³ and 126.0 mm³ and 144.0 mm³; Tumor volume (subcutaneous KAP CRCs; 4 d of treatment): 48.0 mm³ and 56.0 mm³ and 40.0 mm³; viability at 0.5 µM (PDO11; Homo sapiens, 96 h, PDO11, 0.5 µM, 4 d, read-out: Cell viability (%)): 105%; viability at 1 µM (PDO11; Homo sapiens, 96 h, PDO11, 1 µM, 4 days): 10.3%; Cell viability (%) (PDO11; PDO11, 0.5 µM, 4 d, 0.5 µM): 87.92% and 104.04%
